Article PMC7939385, “Disease-associated mutations in inositol 1,4,5-trisphosphate receptor subunits impair channel function” (The Journal of Biological Chemistry, 2021)

How the values were obtained:
WT rIP3R1 [1] = molecular target: T1, WT rIP3R1 (Rattus norvegicus, UniProt C7E1V2, N602D); experiment: competitive [3H]IP3 radioligand binding on immunoprecipitated receptor
T1 construct: gene Itpr1; homotetramer, ~300 kDa subunit; Methods give NM_001270596, footnote NM_001007235

WT rIP3R1 [2] = molecular target: T2, WT rIP3R1 (Rattus norvegicus, UniProt C7E1V2); experiment: as above; conditions: read-out: apparent EC50
T2 construct: gene Itpr1; homotetramer, ~300 kDa subunit; Methods give NM_001270596, footnote NM_001007235
T2 sequence (C7E1V2 1-2748): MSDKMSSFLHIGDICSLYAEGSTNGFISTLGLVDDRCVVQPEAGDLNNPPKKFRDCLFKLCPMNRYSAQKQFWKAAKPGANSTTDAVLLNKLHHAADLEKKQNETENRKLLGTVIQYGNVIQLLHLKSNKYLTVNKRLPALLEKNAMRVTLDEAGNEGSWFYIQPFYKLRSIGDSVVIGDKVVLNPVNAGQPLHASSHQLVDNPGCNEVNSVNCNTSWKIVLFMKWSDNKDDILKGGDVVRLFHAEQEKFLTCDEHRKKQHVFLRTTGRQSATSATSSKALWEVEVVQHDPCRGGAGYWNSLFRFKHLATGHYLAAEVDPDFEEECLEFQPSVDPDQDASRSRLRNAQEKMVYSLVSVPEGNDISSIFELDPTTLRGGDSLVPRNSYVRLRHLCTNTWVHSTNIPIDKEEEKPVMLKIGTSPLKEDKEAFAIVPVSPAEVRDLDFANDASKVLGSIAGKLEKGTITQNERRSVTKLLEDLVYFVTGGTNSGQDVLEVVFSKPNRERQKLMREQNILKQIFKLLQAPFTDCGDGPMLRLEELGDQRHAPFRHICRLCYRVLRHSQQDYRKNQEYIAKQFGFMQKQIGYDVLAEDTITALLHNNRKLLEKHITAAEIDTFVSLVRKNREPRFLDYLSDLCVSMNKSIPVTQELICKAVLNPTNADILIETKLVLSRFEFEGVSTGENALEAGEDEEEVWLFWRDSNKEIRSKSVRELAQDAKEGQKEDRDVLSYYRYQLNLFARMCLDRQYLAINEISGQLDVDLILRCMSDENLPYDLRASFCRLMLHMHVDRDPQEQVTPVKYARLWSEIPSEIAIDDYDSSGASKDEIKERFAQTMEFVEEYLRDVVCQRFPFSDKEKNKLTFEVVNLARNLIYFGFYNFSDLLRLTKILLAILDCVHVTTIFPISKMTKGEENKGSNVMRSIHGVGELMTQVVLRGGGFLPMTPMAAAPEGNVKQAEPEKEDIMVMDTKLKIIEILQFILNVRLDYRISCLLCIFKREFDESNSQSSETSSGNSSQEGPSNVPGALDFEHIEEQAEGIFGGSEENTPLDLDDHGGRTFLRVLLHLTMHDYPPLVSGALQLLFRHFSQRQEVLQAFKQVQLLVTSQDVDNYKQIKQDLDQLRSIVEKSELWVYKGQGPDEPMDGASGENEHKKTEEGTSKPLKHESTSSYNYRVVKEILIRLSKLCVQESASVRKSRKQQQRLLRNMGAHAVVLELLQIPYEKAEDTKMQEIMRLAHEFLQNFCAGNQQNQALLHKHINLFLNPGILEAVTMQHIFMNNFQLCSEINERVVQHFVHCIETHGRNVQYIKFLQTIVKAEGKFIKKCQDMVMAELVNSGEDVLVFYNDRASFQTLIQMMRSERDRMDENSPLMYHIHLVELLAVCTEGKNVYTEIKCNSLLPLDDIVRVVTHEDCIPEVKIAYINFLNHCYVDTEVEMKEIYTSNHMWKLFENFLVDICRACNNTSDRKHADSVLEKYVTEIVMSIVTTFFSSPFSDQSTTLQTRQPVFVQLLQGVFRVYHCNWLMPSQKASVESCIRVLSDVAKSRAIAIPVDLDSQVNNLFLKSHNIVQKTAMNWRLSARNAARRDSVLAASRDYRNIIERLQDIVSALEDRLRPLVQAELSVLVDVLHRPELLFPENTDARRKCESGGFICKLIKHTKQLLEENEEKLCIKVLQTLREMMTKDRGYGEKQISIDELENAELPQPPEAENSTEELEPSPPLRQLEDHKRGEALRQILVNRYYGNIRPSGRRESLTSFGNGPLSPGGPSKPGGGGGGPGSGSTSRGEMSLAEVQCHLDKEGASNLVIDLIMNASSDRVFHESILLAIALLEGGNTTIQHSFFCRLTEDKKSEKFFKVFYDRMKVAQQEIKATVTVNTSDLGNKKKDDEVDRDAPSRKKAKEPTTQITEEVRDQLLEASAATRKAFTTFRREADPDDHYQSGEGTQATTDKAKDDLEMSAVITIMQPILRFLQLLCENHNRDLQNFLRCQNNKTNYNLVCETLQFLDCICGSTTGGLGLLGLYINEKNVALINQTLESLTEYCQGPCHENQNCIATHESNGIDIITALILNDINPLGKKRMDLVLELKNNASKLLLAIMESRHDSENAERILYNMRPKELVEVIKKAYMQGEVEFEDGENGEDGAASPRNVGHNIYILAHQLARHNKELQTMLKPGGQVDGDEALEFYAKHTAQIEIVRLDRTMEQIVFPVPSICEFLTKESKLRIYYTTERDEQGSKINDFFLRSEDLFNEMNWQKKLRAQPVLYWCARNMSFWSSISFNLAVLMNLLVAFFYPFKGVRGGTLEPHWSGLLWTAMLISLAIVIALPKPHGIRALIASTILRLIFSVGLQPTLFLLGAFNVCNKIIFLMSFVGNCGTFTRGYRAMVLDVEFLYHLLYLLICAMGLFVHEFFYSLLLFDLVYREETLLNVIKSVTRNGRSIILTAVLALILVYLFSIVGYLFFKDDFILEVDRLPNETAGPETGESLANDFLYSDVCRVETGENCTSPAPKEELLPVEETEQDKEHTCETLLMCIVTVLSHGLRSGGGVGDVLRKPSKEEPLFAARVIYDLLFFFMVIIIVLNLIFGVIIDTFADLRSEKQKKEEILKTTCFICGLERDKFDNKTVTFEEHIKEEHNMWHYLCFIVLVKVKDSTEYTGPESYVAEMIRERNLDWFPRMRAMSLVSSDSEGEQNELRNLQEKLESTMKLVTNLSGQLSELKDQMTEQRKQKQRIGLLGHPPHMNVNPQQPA
From the text: competitive [3H]IP3 radioligand binding on immunoprecipitated receptor on WT rIP3R1 | the apparent EC50 for binding was not markedly altered under these conditions

WT mIP3R2 = molecular target: T3, WT mIP3R2 (Mus musculus, UniProt Q9Z329); experiment: [3H]IP3 binding on immunoprecipitated receptor; conditions: 2.5 nM [3H]IP3 with 50 uM unlabelled IP3 for nonspecific binding; pH 8, 4 °C, 1 h; labelled compound
T3 construct: gene Itpr2; homotetramer

EC50 (WT rIP3R1 [1]): 70.2 ± 1.6 nM
EC50 (WT rIP3R1 [2]): 45.7 ± 5.3 nM
SMILES: O=P(O)(O)O[C@@H]1[C@H](O)[C@H](O)[C@@H](OP(=O)(O)O)[C@H](OP(=O)(O)O)[C@H]1O [IP3]
[3H]IP3 binding on immunoprecipitated receptor (WT mIP3R2): IP3 binding to mIP3R2^GS was comparable with WT mIP3R2
